Assay results from patent US8410170B2, “Use of isothiocyanates compounds in treating prostatic diseases and skin cancer” (Wuxi JC Pharmaceutical Technology Co., Ltd., priority 2005, dated 2013).

Assays:
transcription factor Sp1 = experiment: Sp1-luc luciferase activity assay in transfected LNCaP AD cells; type: cell-based, human; details: 24 hrs
Source text: The Sp1-luc and mtSp1-luc contain three tandem repeats of consensus Sp1 sites driving the luciferase gene and its mutant. […] Effectene transfection reagent and luciferase assay kit were acquired from Qiagen (Valencia, Calif., USA) and Promega (Madison, Wis., USA). Reagents for protein electrophoresis were purchased from Bio-Rad company (USA). The other chemicals were purchased from Sigma (St. Louis, Mo.) otherwise as indicated. […] (Gao, M., Ossowski, L., and Ferrari, A. C. Activation of Rb and decline in androgen receptor protein precede retinoic acid-induced apoptosis in androgen-dependent LNCaP cells and their androgen-independent derivative. J Cell Physiol, 179: 336-346, 1999). The AD and AI cells were maintained in RPMI-1640 with 10% fetal bovine serum (FBS) and charcoal stripped fetal bovine serum, penicillin-streptomycin for incubation at 5% CO2 and 37° C. respectively. […] After incubation for 24 hrs at 5% CO2 and 37° C., the cells were transfected with 1 μg/dish of SP1-luciferase gene (Sp1-luc), or its mutant mtSp1-luc using Effectene (Qiagen, Valencia, Calif.) as the transfection reagent. […] The cells were collected, washed, lysed, and the lysates were used for luciferase activity assay using Promega luciferase assay system.

GSTP1 = experiment: Western blot to detect GSTP1 protein in LNCaP cells; type: cell-based, human; details: LNCaP cells exposed 24 hrs
Experimental: Western blot to detect GSTP1 protein (FIG. 1): […] The cells were harvested, washed and total cellular proteins were extracted as described previously (Wang, […], et al. […] Cancer Res 61(20): 7544-51, 2001). Fifty μg cellular extracts were separated on a SDS-PAGE, electro-transferred to nitrocellulose filters, and immunoblotted initially with antibodies against GSTP1. The same membranes were stripped and re-probed with β-actin for loading control. The result was recorded by ECL films.

Sp1 = experiment: Western blot to detect Sp1 in LNCaP cells; type: cell-based, human; details: 24 hrs
Experimental: (§1) The cells were harvested, washed and total cellular proteins were extracted as described previously (as Example 2). Fifty μg proteins were then subjected to electrophoresis in SDS-PAGE, electro-transferred to nitrocellulose filters, and immunoblotted initially with antibodies against AR, Sp1, and PSA. The same membranes were stripped and re-probed with β-actin for loading control. The result was recorded by ECL films.

PSA = experiment: Western blot to detect PSA in LNCaP cells; type: cell-based, human; details: 24 hrs
Experimental: as §1

[1] = tested on: human prostate cancer cell line LNCaP; experiment: MTT and SRB cell growth assay, LNCaP; type: cell-based; details: LNCaP; for IC50: Homo sapiens, MTT and SRB, read-out: IC50, growth inhibition
Experimental: MTT and SRB method as described in the reference (Kreis, Budman et al. 1997). Briefly, human prostate cancer cells grown exponentially were aliquoted into 96-well plates at a density of 5000 cells/200 μl per well. Twenty-four hrs after the incubation, the cells were exposed for three or seven days to serial dilutions of indicated isothiocyanate. After the incubation, 100 μl of the medium was removed from each of the wells and 50 μl solution of 3-(4,5-dimethyl-thiazol-2-yl)-2,5-diphenyltetrazolium bromide (MTT) was added, the cells were incubated for an additional 4 hrs and then 200 μl of 0.04 N HCl-isopropanol was added to each well to dissolve the black formazan precipitates. The absorbance was measured at wavelength 540 nm. For SRB method, remove the medium after 72 hrs. The cells on 96-well dishes were fixed with 10% trichloride acetic acid for 1 hr, air-dried for 24 hrs. The cells were then stained with 50 μl of SRB (sulforhodamine B) for […]. After extensive washes with 1% acetic acid for 5 times, air-dried, the purple protein-SRB complex was dissolved in 200 μl 10 mM Tris-HCl buffer (pH 10.0), and the absorbance was measured at the wavelength of 540 and 630 nm. The percent of cell survival (T/C%) were calculated based on the results of test groups to that of the control group. The semi-exponential curves of the percent of cell survival (T/C%) to the drug concentrations (FIG. 8) and IC50 were obtained by using Sigma-plot program.

LNCaP AD = experiment: MTT growth inhibition, hormone dependent LNCaP AD; type: cell-based; details: Homo sapiens, 168 h; LNCaP AD, seven days, MTT; read-out: IC50, growth inhibition
Source text: (§2) The human prostate cancer cell line LNCaP AD was purchased from the American Type Culture Collection. LNCaP AI cell line was derived from LNCaP cells using a method described previously by Gao et al. (Gao, M., Ossowski, L., and Ferrari, A. C. Activation of Rb and decline in androgen receptor protein precede retinoic acid-induced apoptosis in androgen-dependent LNCaP cells and their androgen-independent derivative. J Cell Physiol, 179: 336-346, 1999). The AD and AI cells were maintained in RPMI-1640 with 10% fetal bovine serum (FBS) and charcoal stripped fetal bovine serum, penicillin-streptomycin for incubation at 5% CO2 and 37° C. respectively.
(§3) MTT: MTT and SRB method were used to determine the effects of various isothiocyanates on cell growth as described previously (Kreis, Budman et al, 1997). Briefly, human prostate cancer cell line LNCaP grown exponentially were aliquoted into 96-well plates at a density of 2500 cells/200 μl per well. Twenty-four hrs after the incubation, the cells were exposed for seven days to serial dilutions of indicated isothiocyanate or paclitaxel. […] The absorbance was measured at wavelength 540 nm. The percent of cell survival (T/C%) were calculated based on the results of test groups to that of the control group. […]

LNCaP AI = experiment: MTT growth inhibition, hormone independent LNCaP AI; type: cell-based; details: Homo sapiens, 168 h; LNCaP AI, seven days, MTT; read-out: IC50, growth inhibition
Source text: as §2, §3

Row | SMILES | luciferase activity of Sp1-luc transfected gene (transcription factor Sp1) | expression of GSTP1 (Western blot) (GSTP1) | expression of Sp1 (Western blot) (Sp1) | expression of PSA (Western blot) (PSA) | Percent of Cell Survival (T/C %) ([1]; 0.0390 μM) [%] | Percent of Cell Survival (T/C %) ([1]; 0.0780 μM) [%] | Percent of Cell Survival (T/C %) ([1]; 0.1562 μM) [%] | Percent of Cell Survival (T/C %) ([1]; 0.3125 μM) [%] | Percent of Cell Survival (T/C %) ([1]; 0.6250 μM) [%] | Percent of Cell Survival (T/C %) ([1]; 1.2500 μM) [%] | Percent of Cell Survival (T/C %) ([1]; 2.5000 μM) [%] | Percent of Cell Survival (T/C %) ([1]; 5.0000 μM) [%] | Percent of Cell Survival (T/C %) ([1]; 10.0000 μM) [%] | Percent of Cell Survival (T/C %) ([1]; 20.0000 μM) [%] | IC50 [1] [nM] | IC50 (LNCaP AD) [nM] | IC50 (LNCaP AI) [nM]
1 | CC(/C=C/C(=O)NO)=C\[C@@H](C)C(=O)c1ccc(N(C)C)cc1 [TSA, trichostatin A, reference compound] | significantly stimulated |  |  |  |  |  |  |  |  |  |  |  |  |  |  |  | 
2 | S=C=NCc1ccccc1 [BITC, benzyl isothiocyanate] |  | effectively induce | significantly inhibited | significantly inhibited | 94.09 | 95.64 | 97.91 | 95.82 | 71.25 | 27.95 | 14.83 | 5.07 | 0.88 | 0.94 | 800 to 1500 |  | 
3 | C=CCN=C=S [AITC, allyl isothiocyanate] |  | effectively induce | minimal activities | minimal activities | 98.84 | 98.92 | 98.26 | 98.55 | 97.10 | 99.49 | 83.95 | 47.60 | 41.01 | 38.69 | ~10000 |  | 
4 | CC(=O)O[C@H]1C(=O)[C@@]2(C)[C@H]([C@H](OC(=O)c3ccccc3)[C@]3(O)C[C@H](OC(=O)[C@H](O)[C@@H](NC(=O)c4ccccc4)c4ccccc4)C(C)=C1C3(C)C)[C@]1(OC(C)=O)CO[C@@H]1C[C@@H]2O [paclitaxel, reference compound] |  |  |  |  |  |  |  |  |  |  |  |  |  |  |  | 0.01 | 0.6
5 | O=S(=O)(O)c1ccc(N=C=S)cc1 [SPITC, 4-sulfophenylisothiocyanate] |  | effectively induce | no effect | no effect | 99.54 | 101.43 | 101.43 | 99.66 | 98.26 | 101.56 | 104.37 | 100.60 | 101.33 | 99.88 |  |  | 
